Legend:
[1] = tested on: mouse stomach tissues gene expression; test: Treatment induced gene expression in mouse stomach tissues, RNA-sequencing, differential expression by fold change (Example 3); assay type: in vivo; conditions: for Number of significant features, Down-regulated, fold change threshold 1.3× / Number of significant features, Down-regulated, fold change threshold 2× / Number of significant features, Down-regulated, fold change threshold 4× / Number of significant features, Down-regulated, fold change threshold 8× / Number of significant features, Down-regulated, fold change threshold 16× / Number of significant features, Down-regulated, fold change threshold Any / Number of significant features, Up-regulated, fold change threshold 1.3× / Number of significant features, Up-regulated, fold change threshold 2× / Number of significant features, Up-regulated, fold change threshold 4× / Number of significant features, Up-regulated, fold change threshold 8× / Number of significant features, Up-regulated, fold change threshold 16× / Number of significant features, Up-regulated, fold change threshold Any: stomach
[2] = tested on: murine stomach tissue gene expression profile; test: Congruence analysis of differentially expressed stomach genes, ENT-01 vs ENT-06; assay type: in vivo, mouse
Text: Genes that were differentially expressed in response to ENT-01 treatment, as identified in this study, were compared to those that were associated with ENT-06 treatments, respectively. ENT-06 treatment-associated gene expression changes were identified previously. Across all contrasts at the relevant statistical thresholds used to identify significant features, there were ten or less genes that changed in expression upon both treatments (ENT-01 and ENT-06). Note that this included the gene expression changes associated with ageing.
Congruence analysis was performed between the contrasts Specifically, the analysis compared the effects of human- or shark-origin compound analogues on murine stomach tissue gene expression profile as follows: ENT-01 was compared to ENT-06. Scatter plots, upset plots, venn diagrams, hypergeometric tests and Spearman rank correlation tests were employed to assess the level of overlap. […] Whereas the ENT-01 contrasts in this study defined significant genes using a cutoff of greater than four-fold change in expression.
Congruence between these sets of genes was then assessed by comparing ENT-01-affected genes to those of ENT-06. […] The symbol U denotes the universe. Overlap was assessed between ENT-01 vs control (young) (202 genes) and ENT-06 vs untreated (young) (26 genes). 10 genes overlapped between the two sets when not considering direction of change. […] The Spearman rank correlation between the genes in the two sets was −0.1313.
Congruence analysis for: ENT-01 vs ENT-06 (old) was also conducted. […] Overlap was assessed between ENT-01 vs control (old) (383 genes) and ENT-06 vs untreated (old) (55 genes). 1 genes overlapped between the two sets when not considering direction of change. This is no more than would be expected by chance (p=0.5057). The Spearman rank correlation between the genes in the two sets was 0.003217.

[3] = molecular target: sodium-hydrogen exchanger (“NHE-3”) (Oryctolagus cuniculus, UniProt P26432); conditions: Akhter, Nath et al. 1999; cited from earlier work
[4] = tested on: mice with constipation due to overexpression of human αS; conditions: orally administered; cited from earlier work
[5] = tested on: mouse stomach RNA transcriptome; test: RNAseq of stomach transcriptome in old mice after oral squalamine (Example 1); assay type: in vivo; conditions: oral dosing 14 days
Description: The dosing schedule used to determine the effect of orally administered squalamine and ENT-02 (MSI-1436) on the GI tracts of young and old mice was as follows. Male C57B1/6 mice, aged 20 and 78 weeks, were obtained from Jackson labs. Animals were exposed to 12 hr light dark cycles and provided Teklad standard mouse diet and water ad lib.
Animals were dosed once daily by oral gavage in the morning for a total of 14 days. Animals were fasted 3-4 hours prior to dosing and 1 hour following. The test article was dissolved in 0.5% hydroxypropylcellulose in water. On day 15 the animals were euthanized by C02 asphyxiation, necropsied, and tissues prepared for histology and RNAseq analysis.
The GI tracts of the animals were sectioned into stomach, duodenum, jejunum, ileum, caecum, colon, and rectum. The tissues were then sent for histology, and the transcriptomes analyzed by RNAseq.

[6] = cutoff greater than four-fold change in expression
[7] = Old vs young mice, both treated
[8] = treatment vs control (old mice)
[9] = treatment vs control (young mice)

Sequence of sodium-hydrogen exchanger (“NHE-3”) (P26432 30-832): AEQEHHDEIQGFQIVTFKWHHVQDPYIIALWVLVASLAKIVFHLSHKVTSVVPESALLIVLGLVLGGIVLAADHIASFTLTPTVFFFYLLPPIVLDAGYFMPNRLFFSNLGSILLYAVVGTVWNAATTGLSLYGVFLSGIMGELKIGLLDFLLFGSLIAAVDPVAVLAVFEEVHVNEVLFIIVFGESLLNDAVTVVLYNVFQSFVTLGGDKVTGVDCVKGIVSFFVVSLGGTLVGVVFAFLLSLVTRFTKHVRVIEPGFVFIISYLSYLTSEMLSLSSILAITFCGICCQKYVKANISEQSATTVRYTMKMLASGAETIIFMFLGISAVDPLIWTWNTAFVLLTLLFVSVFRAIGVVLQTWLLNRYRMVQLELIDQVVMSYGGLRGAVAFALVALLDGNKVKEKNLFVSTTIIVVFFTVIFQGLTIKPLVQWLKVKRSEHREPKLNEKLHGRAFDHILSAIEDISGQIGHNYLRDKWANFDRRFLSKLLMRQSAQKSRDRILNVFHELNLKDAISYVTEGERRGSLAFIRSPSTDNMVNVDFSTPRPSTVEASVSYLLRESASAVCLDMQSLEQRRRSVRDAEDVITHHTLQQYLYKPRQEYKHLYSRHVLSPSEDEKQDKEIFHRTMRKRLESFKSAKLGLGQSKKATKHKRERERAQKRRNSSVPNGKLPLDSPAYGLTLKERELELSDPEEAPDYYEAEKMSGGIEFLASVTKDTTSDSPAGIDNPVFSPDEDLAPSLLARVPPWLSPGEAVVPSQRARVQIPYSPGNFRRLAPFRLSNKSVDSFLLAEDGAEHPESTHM

CC(C)[C@@H](CC[C@@H](C)[C@H]1CC[C@H]2[C@@H]3[C@H](O)C[C@H]4C[C@@H](NCCCNCCCCN)CC[C@]4(C)[C@H]3CC[C@]12C)OS(=O)(=O)O (single isomer, unassigned) [ENT-01, squalamine]
overlap of genes downregulated in aged mice with genes up-regulated in response to treatment in old mice ([1]; hypergeometric P<0.0001): overlapped significantly | number of significant genes, treatment vs control (old) [2, 6]: 383 genes | number of significant genes, treatment vs control (young) [2, 6]: 202 genes | inhibition of NHE-3 [3]: inhibit | gastro-intestinal motility [4]: stimulates gastro-intestinal motility | mRNA levels for all of the genes of Table 3 after treatment [5]: significant increase

CC(C)[C@@H](CC[C@@H](C)[C@H]1CC[C@H]2[C@@H]3[C@H](O)C[C@H]4C[C@@H](NCCCNCCCCNCCCN)CC[C@]4(C)[C@H]3CC[C@]12C)OS(=O)(=O)O (single isomer, unassigned) [ENT-02 (MSI-1436), trodusquemine]
Number of significant features, Down-regulated, fold change threshold 1.3× [1, 7]: 1986 | Number of significant features, Down-regulated, fold change threshold 2× [1, 7]: 314 | Number of significant features, Down-regulated, fold change threshold 4× [1, 7]: 63 | Number of significant features, Down-regulated, fold change threshold 8× [1, 7]: 8 | Number of significant features, Down-regulated, fold change threshold 16× [1, 7]: 4 | Number of significant features, Down-regulated, fold change threshold Any [1, 7]: 7344 | Number of significant features, Up-regulated, fold change threshold 1.3× [1, 7]: 2644 | Number of significant features, Up-regulated, fold change threshold 2× [1, 7]: 676 | Number of significant features, Up-regulated, fold change threshold 4× [1, 7]: 190 | Number of significant features, Up-regulated, fold change threshold 8× [1, 7]: 78 | Number of significant features, Up-regulated, fold change threshold 16× [1, 7]: 39 | Number of significant features, Up-regulated, fold change threshold Any [1, 7]: 7669 | Number of significant features, Down-regulated, fold change threshold 1.3× [1, 8]: 1395 | Number of significant features, Down-regulated, fold change threshold 2× [1, 8]: 203 | Number of significant features, Down-regulated, fold change threshold 4× [1, 8]: 38 | Number of significant features, Down-regulated, fold change threshold 8× [1, 8]: 7 | Number of significant features, Down-regulated, fold change threshold 16× [1, 8]: 1 | Number of significant features, Down-regulated, fold change threshold Any [1, 8]: 7597 | Number of significant features, Up-regulated, fold change threshold 1.3× [1, 8]: 2109 | Number of significant features, Up-regulated, fold change threshold 2× [1, 8]: 657 | Number of significant features, Up-regulated, fold change threshold 4× [1, 8]: 298 | Number of significant features, Up-regulated, fold change threshold 8× [1, 8]: 139 | Number of significant features, Up-regulated, fold change threshold 16× [1, 8]: 42 | Number of significant features, Up-regulated, fold change threshold Any [1, 8]: 7416 | Number of significant features, Down-regulated, fold change threshold 1.3× [1, 9]: 2429 | Number of significant features, Down-regulated, fold change threshold 2× [1, 9]: 531 | Number of significant features, Down-regulated, fold change threshold 4× [1, 9]: 120 | Number of significant features, Down-regulated, fold change threshold 8× [1, 9]: 43 | Number of significant features, Down-regulated, fold change threshold 16× [1, 9]: 16 | Number of significant features, Down-regulated, fold change threshold Any [1, 9]: 7667 | Number of significant features, Up-regulated, fold change threshold 1.3× [1, 9]: 1860 | Number of significant features, Up-regulated, fold change threshold 2× [1, 9]: 232 | Number of significant features, Up-regulated, fold change threshold 4× [1, 9]: 30 | Number of significant features, Up-regulated, fold change threshold 8× [1, 9]: 7 | Number of significant features, Up-regulated, fold change threshold 16× [1, 9]: 1 | Number of significant features, Up-regulated, fold change threshold Any [1, 9]: 7346

C[C@H](CCC[C@@H](C)[C@H]1CCC2C3C(CC[C@@]21C)[C@@]1(C)CC[C@H](NCCCNCCCCN)C[C@@H]1C[C@H]3O)C(=O)O (single isomer, unassigned) [ENT-06, 3-β-Spermidino-7α-hydroxy-5α-cholestanoic acid]
Spearman rank correlation between the genes in the ENT-01 and ENT-06 sets ([2]; old mice): 0.003217 | overlap of genes down-regulated in ageing and up-regulated in treatment, ENT-01 vs ENT-06 ([2]; old mice): did not overlap | genes overlapping with ENT-01 vs control (old) set, not considering direction of change ([2]; old mice, p=0.5057): 1 genes | number of significant genes, treatment vs untreated (old) ([2]; threshold FDR-adjusted P<0.05): 55 genes | number of significant genes, treatment vs untreated (young) ([2]; threshold FDR-adjusted P<0.05): 26 genes | genes overlapping with ENT-01 vs control (young) set, not considering direction of change ([2]; young mice, p=1.721e−16): 10 genes | Spearman rank correlation between the genes in the ENT-01 and ENT-06 sets ([2]; young mice, p=5.678e−57): −0.1313

— US20220372066A1, “HUMAN SQUALAMINE DERIVATIVES (ENT-06), RELATED COMPOSITIONS COMPRISING THE SAME, AND METHOD OF USING THE SAME” (Enterin, Inc., priority 2019, published 2022)
